Data: patent US10829520B2, “Beta-hairpin peptidomimetics” (POLYPHOR AG, priority 2015, dated 2020)
Where a SMILES comes first, the peptide text is derived from it. Bridges are numbered along the chain shown (N, C = ends). [ ]: non-standard residue; d: D form. Tle = CC(C)(C)[C@H](N)C(=O)O; dDab = NCC[C@@H](N)C(=O)O; Nle = CCCC[C@H](N)C(=O)O; Orn = NCCC[C@H](N)C(=O)O; Dab = NCC[C@H](N)C(=O)O; Dap = NC[C@H](N)C(=O)O

Key:
Assay type in all cases: cell-based
[1] = system: Acinetobacter baumannii 872842; details: 872842
[2] = system: Klebsiella pneumoniae SSI #3010; details: SSI #3010
Summary of the method: (§1)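 Read-out is the minimal inhibitory concentration in μg/mL, taken as the lowest peptide level without visible growth after 18-20 h at 35° C. Testing followed CLSI broth microdilution in cation-adjusted Mueller-Hinton II broth plus 0.002% Polysorbate 80, with roughly 10^6 CFU/mL.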

[3] = system: Escherichia coli ATCC 25922; details: ATCC 25922
Summary of the method: as §1

[4] = system: Acinetobacter baumannii DSM 30008; details: DSM 30008
Summary of the method: as §1

[5] = system: Pseudomonas aeruginosa ATCC 27853; details: ATCC 27853
Summary of the method: as §1

[6] = system: Klebsiella pneumoniae 968733; details: 968733
Escherichia coli 926415 = details: 926415
[7] = system: human red blood cells (hRBC); assay: Hemolysis of human red blood cells; details: red cells of human, 1 h, 100 μg/mL
Summary of the method: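 Hemolysis was read as supernatant absorbance at 540 nm and expressed as a percentage of Triton X-100 (2.5%) lysis. Washed human red cells (20% v/v) had been exposed to each peptide at 100 μg/mL for 1 h at 37° C.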

SMILES | Acinetobacter baumannii 872842 MIC [1] | Klebsiella pneumoniae SSI #3010 MIC [2] | Escherichia coli ATCC 25922 MIC [3] | Acinetobacter baumannii DSM 30008 MIC [4] | Pseudomonas aeruginosa ATCC 27853 MIC [5] | Klebsiella pneumoniae 968733 MIC [6] | Escherichia coli 926415 MIC (Escherichia coli 926415) | Hemolysis at 100 μg/mL [7]
CCCC[C@@H]1NC(=O)[C@@H]2CCCN2C(=O)[C@H]2CCCN2C(=O)[C@H](CO)NC(=O)[C@H](CO)NC(=O)[C@H](C(C)(C)C)NC(=O)[C@@H](NC(=O)[C@@H](N)Cc2c[nH]c3ccccc23)CSSC[C@@H](C(=O)N[C@@H](CCCN)C(=O)N[C@H](Cc2ccccc2)C(=O)N[C@H](CCN)C(=O)N[C@H]2CCNC(=O)[C@H]([C@@H](C)O)NC(=O)[C@H](CCN)NC(=O)[C@H](CCN)NC(=O)[C@H](CC(C)C)NC(=O)[C@@H](Cc3ccccc3)NC(=O)[C@H](CCN)NC2=O)NC(=O)[C@H](Cc2ccc(O)cc2)NC(=O)[C@H](CO)NC1=O [Ex. 105] (H-WC[Tle]SS[dP]P[Nle]SYC[Orn][dF][dDab][Dab][Dab][dF]L[Dab][Dab]T; disulfide 2-11; lactam 15-C) | 0.25 µg/mL | 0.5 µg/mL | 0.25 µg/mL | 0.5 µg/mL | 1 µg/mL | 1 µg/mL | 0.125 µg/mL | 1.7%
CCCC[C@@H]1NC(=O)[C@@H]2CCCN2C(=O)[C@H]2CCCN2C(=O)[C@H](CO)NC(=O)[C@H](CO)NC(=O)[C@H](C(C)(C)C)NC(=O)[C@@H](NC(=O)[C@@H](N)Cc2c[nH]c3ccccc23)CSSC[C@@H](C(=O)N[C@H](CCN)C(=O)N[C@@H](CCN)C(=O)N[C@H](CCN)C(=O)N[C@H]2CCNC(=O)[C@H]([C@@H](C)O)NC(=O)[C@H](CCN)NC(=O)[C@H](CCN)NC(=O)[C@H](CC(C)C)NC(=O)[C@@H](Cc3ccccc3)NC(=O)[C@H](CCN)NC2=O)NC(=O)[C@H](Cc2ccc(O)cc2)NC(=O)[C@H](CO)NC1=O [Ex. 106] (H-WC[Tle]SS[dP]P[Nle]SYC[dDab][Dab][dDab][Dab][Dab][dF]L[Dab][Dab]T; disulfide 2-11; lactam 15-C) | 0.125 µg/mL | 0.125 µg/mL | 0.125 µg/mL | 0.25 µg/mL | 0.25 µg/mL | 0.5 µg/mL | 0.125 µg/mL | 1%
CCCC[C@@H]1NC(=O)[C@@H]2CCCN2C(=O)[C@H]2CCCN2C(=O)[C@H](CO)NC(=O)[C@H](CO)NC(=O)[C@H](C(C)(C)C)NC(=O)[C@@H](NC(=O)[C@@H](N)Cc2c[nH]c3ccccc23)CSSC[C@@H](C(=O)N[C@@H](C(=O)N[C@@H](CCN)C(=O)N[C@H](CCN)C(=O)N[C@H]2CCNC(=O)[C@H]([C@@H](C)O)NC(=O)[C@H](CCN)NC(=O)[C@H](CCN)NC(=O)[C@H](CC(C)C)NC(=O)[C@@H](Cc3ccccc3)NC(=O)[C@H](CCN)NC2=O)[C@H](C)O)NC(=O)[C@H](Cc2ccc(O)cc2)NC(=O)[C@H](CO)NC1=O [Ex. 107] (H-WC[Tle]SS[dP]P[Nle]SYC[dT][Dab][dDab][Dab][Dab][dF]L[Dab][Dab]T; disulfide 2-11; lactam 15-C) | 0.125 µg/mL | 0.5 µg/mL | 0.125 µg/mL | 0.0625 µg/mL | 0.25 µg/mL | 0.5 µg/mL | 0.125 µg/mL | 0.3%
CCCC[C@@H]1NC(=O)[C@@H]2CCCN2C(=O)[C@H]2CCCN2C(=O)[C@H](CO)NC(=O)[C@H](CO)NC(=O)[C@H](C(C)(C)C)NC(=O)[C@@H](NC(=O)[C@@H](N)Cc2c[nH]c3ccccc23)CSSC[C@@H](C(=O)N[C@@H](CCC(=O)O)C(=O)N[C@@H](CCN)C(=O)N[C@@H](CCN)C(=O)N[C@H]2CCNC(=O)[C@H]([C@@H](C)O)NC(=O)[C@H](CCN)NC(=O)[C@H](CCN)NC(=O)[C@H](CC(C)C)NC(=O)[C@@H](Cc3ccccc3)NC(=O)[C@H](CCN)NC2=O)NC(=O)[C@H](Cc2ccc(O)cc2)NC(=O)[C@H](CO)NC1=O [Ex. 108] (H-WC[Tle]SS[dP]P[Nle]SYCE[Dab][Dab][Dab][Dab][dF]L[Dab][Dab]T; disulfide 2-11; lactam 15-C) | 1 µg/mL | 2 µg/mL | 1 µg/mL | 1 µg/mL | 1 µg/mL | 2 µg/mL | 0.5 µg/mL | 2%
CCCC[C@@H]1NC(=O)[C@@H]2CCCN2C(=O)[C@H]2CCCN2C(=O)[C@H](CO)NC(=O)[C@H](CO)NC(=O)[C@H](C(C)(C)C)NC(=O)[C@@H](NC(=O)[C@@H](N)Cc2c[nH]c3ccccc23)CSSC[C@@H](C(=O)N[C@H](Cc2ccc(O)cc2)C(=O)N[C@@H](CCN)C(=O)N[C@@H](CCN)C(=O)N[C@H]2CCNC(=O)[C@H]([C@@H](C)O)NC(=O)[C@H](CCN)NC(=O)[C@H](CCN)NC(=O)[C@H](CC(C)C)NC(=O)[C@@H](Cc3ccccc3)NC(=O)[C@H](CCN)NC2=O)NC(=O)[C@H](Cc2ccc(O)cc2)NC(=O)[C@H](CO)NC1=O [Ex. 109] (H-WC[Tle]SS[dP]P[Nle]SYC[dY][Dab][Dab][Dab][Dab][dF]L[Dab][Dab]T; disulfide 2-11; lactam 15-C) | 0.5 µg/mL | 1 µg/mL | 0.25 µg/mL | 0.5 µg/mL | 1 µg/mL | 1 µg/mL | 0.5 µg/mL | <1%
CC(=O)N[C@@H](Cc1c[nH]c2ccccc12)C(=O)N[C@H]1CSSC[C@@H](C(=O)N[C@@H](CCCN)C(=O)N[C@H](CCN)C(=O)N[C@@H](CCN)C(=O)N[C@H]2CCNC(=O)[C@H]([C@@H](C)O)NC(=O)[C@H](CCN)NC(=O)[C@H](CCN)NC(=O)[C@H](CC(C)C)NC(=O)[C@@H](Cc3ccccc3)NC(=O)[C@H](CCN)NC2=O)NC(=O)[C@H](Cc2ccc(O)cc2)NC(=O)[C@H](CN)NC(=O)[C@H](Cc2ccccc2)NC(=O)[C@H](CC(C)C)NC(=O)[C@H]2CCCN2C(=O)[C@H](CO)NC(=O)[C@H](C)NC(=O)[C@H](C(C)(C)C)NC1=O [Ex. 110] (Ac-WC[Tle]AS[dP]LF[Dap]YC[Orn][dDab][Dab][Dab][Dab][dF]L[Dab][Dab]T; disulfide 2-11; lactam 15-C) | 0.25 µg/mL | 0.5 µg/mL | 0.5 µg/mL | 0.25 µg/mL | 1 µg/mL | 2 µg/mL | 0.25 µg/mL | 2%
CC(=O)N[C@@H](Cc1c[nH]c2ccccc12)C(=O)N[C@H]1CSSC[C@@H](C(=O)N[C@@H](CCCN)C(=O)N[C@H](C(=O)N[C@@H](CCN)C(=O)N[C@H]2CCNC(=O)[C@H]([C@@H](C)O)NC(=O)[C@H](CCN)NC(=O)[C@H](CCN)NC(=O)[C@H](CC(C)C)NC(=O)[C@@H](Cc3ccccc3)NC(=O)[C@H](CCN)NC2=O)[C@@H](C)O)NC(=O)[C@H](Cc2ccc(O)cc2)NC(=O)[C@H](CO)NC(=O)[C@H](CC(C)C)NC(=O)[C@@H]2CCCN2C(=O)[C@H]2CCCN2C(=O)[C@H](CO)NC(=O)[C@H](C)NC(=O)[C@H](Cc2c[nH]c3ccccc23)NC1=O [Ex. 111] (Ac-WCWAS[dP]PLSYC[Orn]T[Dab][Dab][Dab][dF]L[Dab][Dab]T; disulfide 2-11; lactam 15-C) | 0.25 µg/mL | 1 µg/mL | 0.25 µg/mL | 0.25 µg/mL | 1 µg/mL | 1 µg/mL | 0.25 µg/mL | 2%
CC(=O)N[C@@H](Cc1c[nH]c2ccccc12)C(=O)N[C@H]1CSSC[C@@H](C(=O)N[C@@H](CCCN)C(=O)N[C@@H](CCN)C(=O)N[C@@H](CCN)C(=O)N[C@H]2CCNC(=O)[C@H]([C@@H](C)O)NC(=O)[C@H](CCN)NC(=O)[C@H](CCN)NC(=O)[C@H](CC(C)C)NC(=O)[C@@H](Cc3ccccc3)NC(=O)[C@H](CCN)NC2=O)NC(=O)[C@H](Cc2ccc(O)cc2)NC(=O)[C@H](CO)NC(=O)[C@H](CC(C)C)NC(=O)[C@@H]2CCCN2C(=O)[C@H]2CCCN2C(=O)[C@H](CO)NC(=O)[C@@H](C)NC(=O)[C@H](C(C)(C)C)NC1=O [Ex. 112] (Ac-WC[Tle][dA]S[dP]PLSYC[Orn][Dab][Dab][Dab][Dab][dF]L[Dab][Dab]T; disulfide 2-11; lactam 15-C) | 1 µg/mL | 0.5 µg/mL | 1 µg/mL | 1 µg/mL | 4 µg/mL | 0.5 µg/mL | 1 µg/mL | 1%
